This assay relates to Jurkat cells engineered to have enhanced green fluorescent protein (eGFP) reporter fused to nuclear factor of activated T cells (NFAT) transcription factor. Nature of the assay: NFAT-eGFP reporter assay in Jurkat cells with compounds photoreleased from labeled perturbation beads. Particulars: compounds released from beads by 10 seconds of 365 nm light, 60 mW/cm^2. The assay is classed as cell-based. The method, then: Individual beads were added to wells of a multiwell assay device. Jurkat cells engineered to have enhanced green fluorescent protein (eGFP) reporter fused to nuclear factor of activated T cells (NFAT) transcription factor were added to each well (cells purchased from BPS Bioscience, Catalog #78384). The compounds were released from the beads by exposure to 10 seconds of 365 nm wavelength light having illumination power of 60 mW/cm^2 and allowed to interact with the cells in the respective wells. […] This exemplifies using optically detectible labels on the bead to code for perturbation compounds and/or building blocks and corresponding that visible code to a cell perturbation.
For orientation: A reporter such as luciferase makes a cellular process visible.

On to `O=C1CCC(N2Cc3cc(C(=O)O)ccc3C2=O)C(=O)N1` (stereo not drawn) [LNI, 2-(2,6-dioxopiperidin-3-yl)-1-oxoisoindoline-5-carboxylic acid], for which the “change in NFAT-eGFP expression levels” value is “minimal change”.
The same measure for `Cc1sc2c(c1C)C(c1ccc(Cl)cc1)=NC([C@@H](C(=O)O)C(C)(C)C)c1nnc(C)n1-2` (stereo partly drawn) [JQ1, ((S)-tert-butyl 2-(4-(4-chlorophenyl)-2,3,9-trimethyl-6H-thieno[3,2-f] [1,2,4]triazolo[4,3-a] [1,4]diazepin-6-yl)acetic acid)]: “minimal change”; for `COc1cc2c(cc1Nc1ncc(C(=O)O)c(Nc3c(F)cccc3C(F)(F)F)n1)CN(C)CC2` [HPK, 4-{[2-Fluoro-6-(trifluoromethyl)phenyl]amino}-2-[(6-methoxy-2-methyl-1,2,3,4-tetrahydro-7-isoquinolinyl)amino]-5-pyrimidine-5-carboxylic acid]: “minimal change”.

The values are drawn from patent US12577556B2, “Perturbation beads for use in assays” (Zafrens Inc., priority 2022, dated 2026).
